Results: ChEMBL document CHEMBL1201862, “PubChem BioAssay data set” (2004)
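Each compound was tested at five concentrations against cells in 96-well plates for 48 hours. GI50: concentration for 50% inhibition of growth.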 The source made the active and inactive calls. No stated cut-off is given here; in the data, active = GI50 up to about 1.1 µM and inactive = higher.

Assays:
Test in all cases: inhibition of tumour cell growth, NCI panel, 48 h
[1] = system: 786-0
[2] = system: A498
[3] = system: A549
[4] = system: ACHN
[5] = system: CAKI-1
[6] = system: CCRF-CEM
[7] = system: COLO 205
[8] = system: DU-145
[9] = system: EKVX
[10] = system: HCC 2998
[11] = system: HCT-116
[12] = system: HCT-15
[13] = system: HL-60
[14] = system: HOP-62
[15] = system: HT-29
[16] = system: Hs-578T
[17] = system: IGROV-1
[18] = system: K562
[19] = system: KM12
[20] = system: LOX IMVI
[21] = system: M14
[22] = system: MCF7
[23] = system: MDA-MB-231
[24] = system: MDA-MB-435
[25] = system: MDA-N
[26] = system: MOLT-4
[27] = system: Malme-3M
[28] = system: NCI-H226
[29] = system: NCI-H23
[30] = system: NCI-H460
[31] = system: NCI/ADR-RES
[32] = system: OVCAR-4
[33] = system: OVCAR-5
[34] = system: OVCAR-8
[35] = system: PC-3
[36] = system: RPMI-8226
[37] = system: SF-268
[38] = system: SF-295
[39] = system: SF-539
[40] = system: SK-MEL-28
[41] = system: SK-MEL-2
[42] = system: SK-MEL-5
[43] = system: SK-OV-3
[44] = system: SN12C
[45] = system: SNB-19
[46] = system: SNB-75
[47] = system: SR
[48] = system: SW-620
[49] = system: T47D
[50] = system: TK-10
[51] = system: U-251
[52] = system: UACC-257
[53] = system: UACC-62
[54] = system: UO-31
[55] = system: HOP-92
[56] = system: OVCAR-3
[57] = system: RXF 393

Measured: GI50

O=C(/C=C/c1ccsc1)c1ccc(Cl)cc1
39.7 µM: [12]
inactive: [1] 89.5 µM | [2] 45 µM | [3] > 100 µM | [4] > 100 µM | [5] > 100 µM | [6] 21.9 µM | [7] > 100 µM | [8] > 100 µM | [9] 97.7 µM | [10] > 100 µM | [11] 23.7 µM | [13] 19.1 µM | [14] > 100 µM | [15] 36.5 µM | [16] 57.8 µM | [17] > 100 µM | [18] 20.6 µM | [19] 35.3 µM | [20] 25.5 µM | [21] 80.7 µM | [22] 34.8 µM | [23] 63.7 µM | [24] 41.8 µM | [25] 59 µM | [26] 19.2 µM | [27] 33.1 µM | [28] 52 µM | [29] 35.3 µM | [30] > 100 µM | [31] 78.3 µM | [32] > 100 µM | [33] 56.1 µM | [34] 64.7 µM | [35] 70.8 µM | [36] 21 µM | [37] 79.4 µM | [38] > 100 µM | [39] 76.7 µM | [40] > 100 µM | [41] > 100 µM | [42] > 100 µM | [43] > 100 µM | [44] 43.4 µM | [45] 53.8 µM | [46] > 100 µM | [47] 18.7 µM | [48] 33.6 µM | [49] 74.8 µM | [50] > 100 µM | [51] 66.4 µM | [52] > 100 µM | [53] 41.6 µM | [54] 31.1 µM

Nc1nc(N)c2ncn(CC3CCC(CO)C3)c2n1 (centres undefined)
> 100 µM: [12]
inactive: [1] > 100 µM | [2] > 100 µM | [3] > 100 µM | [4] > 100 µM | [5] > 100 µM | [6] > 100 µM | [7] > 100 µM | [8] > 100 µM | [9] > 100 µM | [10] > 100 µM | [11] > 100 µM | [14] > 100 µM | [55] > 100 µM | [16] > 100 µM | [18] > 100 µM | [19] > 100 µM | [20] > 100 µM | [21] > 100 µM | [22] > 100 µM | [23] > 100 µM | [24] > 100 µM | [25] > 100 µM | [26] > 100 µM | [28] > 100 µM | [31] > 100 µM | [56] > 100 µM | [32] > 100 µM | [33] > 100 µM | [35] > 100 µM | [36] > 100 µM | [57] > 100 µM | [37] > 100 µM | [38] > 100 µM | [39] > 100 µM | [40] > 100 µM | [41] > 100 µM | [42] > 100 µM | [43] > 100 µM | [44] > 100 µM | [45] > 100 µM | [46] > 100 µM | [48] > 100 µM | [49] > 100 µM | [50] > 100 µM | [51] > 100 µM | [52] > 100 µM | [53] > 100 µM | [54] > 100 µM

C=CC1CN2CCC1CC2C(O)c1ccnc2ccc(OC)cc12 (centres undefined)
inactive: [29] 89.1 µM
